These results are taken from ChEMBL document CHEMBL3045572, “Mitochondrial impacts of insecticidal formate esters in insecticide-resistant and insecticide-susceptible Drosophila melanogaster” (Pest Manag Sci, 2009).

The nature of test [1]: Inhibition of cytochrome c oxidase in insecticide-resistance Drosophila melanogaster Hikone-R mitochondria using reduced cytochrome c as substrate by microplate spectrophotometer analysis.
Test [2] in a line: Inhibition of cytochrome c oxidase in insecticide-susceptible Drosophila melanogaster Canton-S mitochondria using reduced cytochrome c as substrate by microplate spectrophotometer analysis.
The test system of test [3] is Drosophila melanogaster. In words: Inhibition of cytochrome c oxidase in insecticide-susceptible Drosophila melanogaster Canton-S mitochondria at 100 mM using reduced cytochrome c as substrate by microplate spectrophotometer analysis.
Test [4] relates to Drosophila melanogaster. As to the kind of experiment: Disruption of mitochondria in insecticide-susceptible Drosophila melanogaster Canton-S assessed as increase in cytochrome c release from mitochondria to cytosol at 1 mM by western blot analysis. The class given is functional, organism-based. (In western blotting, separated proteins are transferred to a membrane and probed.)

Test [5] relates to Drosophila melanogaster. In words: Inhibition of cytochrome c oxidase in insecticide-resistance Drosophila melanogaster Hikone-R mitochondria at 100 mM using reduced cytochrome c as substrate by microplate spectrophotometer analysis.
Test [6] has as its system Drosophila melanogaster. As to the kind of experiment: Disruption of mitochondria in insecticide-susceptible Drosophila melanogaster Hikone-R assessed as increase in cytochrome c release from mitochondria to cytosol at 1 mM by western blot analysis. The class given is functional, organism-based.
Test [7] has as its system Drosophila melanogaster. To be noted: Canton-S, Mitochondria, 10 mM.
Description: Inhibition of cytochrome c oxidase in insecticide-susceptible Drosophila melanogaster Canton-S mitochondria at 10 mM using reduced cytochrome c as substrate by microplate spectrophotometer analysis
Test [8] deals with Drosophila melanogaster. Conditions: Hikone-R, Mitochondria, 10 mM.
Description: Inhibition of cytochrome c oxidase in insecticide-resistance Drosophila melanogaster Hikone-R mitochondria at 10 mM using reduced cytochrome c as substrate by microplate spectrophotometer analysis

The term IC50 denotes the concentration needed to halve the response being measured. Lower therefore signals greater potency in that assay. The term inhibition denotes how much of the control response was suppressed. A high value points to a strong effect.

Active and inactive are the calls of the source. The rule behind the calls is not given here.

For the molecule `CCC(=O)[O-].[Na+]` [SODIUM PROPIONATE], the half-maximal inhibitory concentration (IC50) in test [1] and in test [2] was over 100 mM each time.
As for `CC(C)(C)OC=O`, the inhibition with Drosophila melanogaster [3] and in the test on Drosophila melanogaster [5] was under 8% each time. Moreover, the result in the test on Drosophila melanogaster [4] and with Drosophila melanogaster [6] was Active.
For `CC1(C)CNC(=NN=C(/C=C/c2ccc(C(F)(F)F)cc2)/C=C/c2ccc(C(F)(F)F)cc2)NC1` [HYDRAMETHYLNON], the IC50 in test [1] was 0.48 mM; in test [2], 0.47 mM.
On to `COC=O`, for which the inhibition with Drosophila melanogaster [3] and in the test on Drosophila melanogaster [5] was under 8% each time. Also, the result in the test on Drosophila melanogaster [4] and in the test on Drosophila melanogaster [6] was Active.
For `C=C(C)[C@H]1Cc2c(ccc3c2O[C@@H]2COc4cc(OC)c(OC)cc4[C@@H]2C3=O)O1`, the result with Drosophila melanogaster [4] and in the test with Drosophila melanogaster [6] was Active.
As to `CCCOC=O`, the inhibition in the test on Drosophila melanogaster [3] and with Drosophila melanogaster [5] was under 8% each time. Also, the outcome in the test on Drosophila melanogaster [4] and in the test on Drosophila melanogaster [6] was Active.
In the case of `CCCCCCOC=O`, the inhibition in the test on Drosophila melanogaster [3] and in the test with Drosophila melanogaster [5] was under 8% throughout. The outcome in the test with Drosophila melanogaster [4] and in the test with Drosophila melanogaster [6] was Active.
Consider `CC(=O)[O-].[Na+]` [SODIUM ACETATE], for which the IC50 in test [1] and in test [2] was over 100 mM in each case.
Regarding `CCOC=O`, the inhibition in the test on Drosophila melanogaster [3] and in the test with Drosophila melanogaster [5] was under 8% throughout. For the same molecule, the outcome with Drosophila melanogaster [4] and with Drosophila melanogaster [6] was Active.
As for `[N-]=[N+]=[N-]` [SODIUM AZIDE], the IC50 in test [1] and in test [2] was over 16 mM in each case.
Take `O=COCCOC=O`: the inhibition with Drosophila melanogaster [3] and with Drosophila melanogaster [5] was under 8% in each case. For the same molecule, the result in the test on Drosophila melanogaster [4] and with Drosophila melanogaster [6] was Active.
`CCCCCC[C@H]1C(=O)O[C@H](C)[C@H](NC(=O)c2cccc(NC=O)c2O)C(=O)O[C@@H](C)[C@@H]1OC(=O)CC(C)C`: the outcome in the test with Drosophila melanogaster [4] and with Drosophila melanogaster [6] was Active.
As for `CCCCCCCOC=O`, the inhibition with Drosophila melanogaster [3] and with Drosophila melanogaster [5] was under 8% throughout. For the same molecule, the result with Drosophila melanogaster [4] and in the test with Drosophila melanogaster [6] was Active.
As for `CCCCOC=O`, the inhibition in the test on Drosophila melanogaster [3] and in the test with Drosophila melanogaster [5] was under 8% throughout. Besides, the outcome in the test with Drosophila melanogaster [4] and in the test with Drosophila melanogaster [6] was Active.
For the molecule `O=C[O-].[Na+]` [SODIUM FORMATE], the IC50 in test [1] and in test [2] was over 100 mM in each case. Moreover, the result in the test on Drosophila melanogaster [4] and in the test on Drosophila melanogaster [6] was Active. In addition, the inhibition in the test with Drosophila melanogaster [7] and in the test with Drosophila melanogaster [8] was 3% in each case.
